According to ChEMBL document CHEMBL1201862, “PubChem BioAssay data set” (2004):
Activity calls are given as the source filed them. Rule as the data show it: actives have a measured EC50 and inactives only a lower limit.

biological target: T1, RNA-binding protein pos-1 (Caenorhabditis elegans, UniProt G5EF15); assay: disruptors of C. elegans POS-1 RNA interaction – biochemical, fluorescence polarization, dose response (AID 1964); conditions: not given;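 also: purified POS-1 fused to maltose binding protein made in E. coli; potency of compounds blocking POS-1 binding to fluorescent RNA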
T1 sequence (G5EF15 whole entry): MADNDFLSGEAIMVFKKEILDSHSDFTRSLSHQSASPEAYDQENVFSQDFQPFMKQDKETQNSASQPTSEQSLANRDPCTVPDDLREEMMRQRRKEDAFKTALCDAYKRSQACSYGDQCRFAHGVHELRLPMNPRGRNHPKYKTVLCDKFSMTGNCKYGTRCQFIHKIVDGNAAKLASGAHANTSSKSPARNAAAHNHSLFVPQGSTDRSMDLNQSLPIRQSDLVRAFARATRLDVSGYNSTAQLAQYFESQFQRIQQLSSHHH

| SMILES | EC50 |
| --- | --- |
| Cc1cc(C)cc(N2C(=O)NC(=O)/C(=C\c3cccn3-c3ccc(Cl)cc3)C2=O)c1 | 84.5 µM (active) |

test system: H4; assay: Luminescence Cell-Based Dose Response HTS to Identify Activators of 5'UTR Stem-Loop Driven Prion Protein mRNA Translation in H4 Neuroglioblastoma Cells. [Related pubchem assays: 1829 (Project Summary), 1814 (Primary HTS)]; format: functional; conditions: Homo sapiens

| SMILES | EC50 |
| --- | --- |
| CC(C)(C)c1ccc(C(=O)NCC(=O)OCC(=O)Nc2nc(-c3ccc(F)cc3)cs2)cc1 | 13.5 µM (active) |
| CC(c1nccs1)N(C)C(=O)c1cn(Cc2cccc3ccccc23)nn1 (centres undefined) | 47.3 µM (active) |
| COc1ccc([N+]2=C3CCc4ccccc4N3CC2(C)O)cc1 (centres undefined) | > 120 µM (not active) |
| CSC1=NC(C)(C)CC2(C)Nc3ccccc3N12 (centres undefined) | > 120 µM (not active) |
| O=C(CSc1nc(-c2ccccc2)cs1)NCCN1C(=O)CSC1=O | 17.9 µM (active) |
| COc1ccc(C2CC(c3ccccc3OC(=O)/C=C/c3ccccc3)=NN2C(C)=O)cc1 (centres undefined) | 36.4 µM (active) |
| CCOc1ccc(C(=O)Nc2nnc(S(=O)(=O)N(C)Cc3ccco3)s2)cc1 | 6.04 µM (active) |
| CCOC(=O)COc1cccc2c(=O)n(CC(=O)NCCc3ccccc3)ccc12 | 19.5 µM (active) |
| O=C(O)c1ccc(/C=N/N2CCN(c3ccccc3)CC2)cc1 | > 120 µM (not active) |

test system: not listed separately; assay: Luminescence Cell-Based Dose Confirmation HTS to Identify Inhibitors of Platelet Dense Granule Release. [Related pubchem assays: 1663 (Primary HTS), 1678 (Summary of Project)]; format: functional; conditions: not given

| SMILES | EC50 |
| --- | --- |
| COc1cccc2oc3cc(C#Cc4ccccn4)ccc3c(=O)c12 | > 112 µM (not active) |
| Cc1nc2sccn2c(=O)c1S(=O)(=O)NC(C)c1ccccc1 (centres undefined) | > 112 µM (not active) |
| Cn1c(=O)oc2cc(S(=O)(=O)NC3CCN(Cc4ccccc4)CC3)ccc21 | > 112 µM (not active) |
| O=C(CCNC(=O)C1CCN(S(=O)(=O)c2ccccc2)CC1)NCc1ccc(Cl)c(Cl)c1 | > 112 µM (not active) |
| Cc1cc(C)n(Cc2cccc(F)c2)c(=O)c1C#N | > 112 µM (not active) |
| O=C(O)C1C2C=CC(C2)C1C(=O)NCc1ccccn1 (centres undefined) | > 112 µM (not active) |
| C=CCn1c(SCC(=O)Nc2sc3c(c2C#N)CCC3)nnc1C1COc2ccccc2O1 (centres undefined) | > 112 µM (not active) |
| COc1ccc(-c2[nH]ncc2/C=N/NC(=O)c2ccc(Br)cc2)c(OC)c1 | 16.1 µM (active) |

biological target: Luciferin 4-monooxygenase (Photinus pyralis, UniProt P08659); assay: inhibition of purified Photinus pyralis luciferase – biochemical, luminescence, dose response (AID 1891); conditions: not given
Sequence (P08659 whole entry): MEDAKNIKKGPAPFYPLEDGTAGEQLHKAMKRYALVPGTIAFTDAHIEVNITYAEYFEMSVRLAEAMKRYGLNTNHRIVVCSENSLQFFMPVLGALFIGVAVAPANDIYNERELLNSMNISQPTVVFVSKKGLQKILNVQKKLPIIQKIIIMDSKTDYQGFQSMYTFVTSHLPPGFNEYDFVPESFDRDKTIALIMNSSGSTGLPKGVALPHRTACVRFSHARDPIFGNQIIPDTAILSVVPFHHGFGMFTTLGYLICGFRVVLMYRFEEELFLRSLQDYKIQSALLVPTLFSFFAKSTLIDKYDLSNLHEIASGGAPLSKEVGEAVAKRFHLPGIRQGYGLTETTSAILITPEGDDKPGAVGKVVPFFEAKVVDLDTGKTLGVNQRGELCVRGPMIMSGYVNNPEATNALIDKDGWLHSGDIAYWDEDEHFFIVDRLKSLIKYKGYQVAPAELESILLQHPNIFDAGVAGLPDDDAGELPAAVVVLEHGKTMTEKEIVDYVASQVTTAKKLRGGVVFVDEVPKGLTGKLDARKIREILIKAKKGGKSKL

| SMILES | EC50 |
| --- | --- |
| COc1cccc2oc3cc(C#Cc4ccccn4)ccc3c(=O)c12 | 23.1 µM (active) |
| Cc1nc2sccn2c(=O)c1S(=O)(=O)NC(C)c1ccccc1 (centres undefined) | > 112 µM (not active) |
| Cn1c(=O)oc2cc(S(=O)(=O)NC3CCN(Cc4ccccc4)CC3)ccc21 | > 112 µM (not active) |
| O=C(CCNC(=O)C1CCN(S(=O)(=O)c2ccccc2)CC1)NCc1ccc(Cl)c(Cl)c1 | > 112 µM (not active) |
| Cc1cc(C)n(Cc2cccc(F)c2)c(=O)c1C#N | > 112 µM (not active) |
| O=C(O)C1C2C=CC(C2)C1C(=O)NCc1ccccn1 (centres undefined) | > 112 µM (not active) |
| C=CCn1c(SCC(=O)Nc2sc3c(c2C#N)CCC3)nnc1C1COc2ccccc2O1 (centres undefined) | 39.7 µM (active) |
| COc1ccc(-c2[nH]ncc2/C=N/NC(=O)c2ccc(Br)cc2)c(OC)c1 | > 112 µM (not active) |

test system: not listed separately; assay: Luminescence Cell-Based Dose Confirmation HTS to Identify Activators of 5'UTR Stem-Loop Driven Alpha-Synuclein mRNA Translation in H4 Neuroglioblastoma Cells. [Related pubchem assays: 1829 (Project Summary), 1814 (Primary HTS)]; format: functional; conditions: not given

| SMILES | EC50 |
| --- | --- |
| CC(C)(C)c1ccc(C(=O)NCC(=O)OCC(=O)Nc2nc(-c3ccc(F)cc3)cs2)cc1 | 19.9 µM (active) |
| CC(c1nccs1)N(C)C(=O)c1cn(Cc2cccc3ccccc23)nn1 (centres undefined) | 13.2 µM (active) |
| COc1ccc([N+]2=C3CCc4ccccc4N3CC2(C)O)cc1 (centres undefined) | > 120 µM (not active) |
| CSC1=NC(C)(C)CC2(C)Nc3ccccc3N12 (centres undefined) | > 120 µM (not active) |
| O=C(CSc1nc(-c2ccccc2)cs1)NCCN1C(=O)CSC1=O | 6.7 µM (active) |
| COc1ccc(C2CC(c3ccccc3OC(=O)/C=C/c3ccccc3)=NN2C(C)=O)cc1 (centres undefined) | 14 µM (active) |
| CCOc1ccc(C(=O)Nc2nnc(S(=O)(=O)N(C)Cc3ccco3)s2)cc1 | 15.1 µM (active) |
| CCOC(=O)COc1cccc2c(=O)n(CC(=O)NCCc3ccccc3)ccc12 | > 120 µM (not active) |
| O=C(O)c1ccc(/C=N/N2CCN(c3ccccc3)CC2)cc1 | 0.687 µM (active) |

test system: not listed separately; assay: Luminescence Cell-Based Dose Response HTS to Identify Activators of Luciferase Translation or Activity in H4 […] Cells. [Related pubchem assays: 1829 (Project Summary), 1814 (Primary HTS)]; format: functional; conditions: not given

| SMILES | EC50 |
| --- | --- |
| CC(C)(C)c1ccc(C(=O)NCC(=O)OCC(=O)Nc2nc(-c3ccc(F)cc3)cs2)cc1 | > 120 µM (not active) |
| CC(c1nccs1)N(C)C(=O)c1cn(Cc2cccc3ccccc23)nn1 (centres undefined) | 18 µM (active) |
| COc1ccc([N+]2=C3CCc4ccccc4N3CC2(C)O)cc1 (centres undefined) | > 120 µM (not active) |
| CSC1=NC(C)(C)CC2(C)Nc3ccccc3N12 (centres undefined) | > 120 µM (not active) |
| O=C(CSc1nc(-c2ccccc2)cs1)NCCN1C(=O)CSC1=O | 31.1 µM (active) |
| COc1ccc(C2CC(c3ccccc3OC(=O)/C=C/c3ccccc3)=NN2C(C)=O)cc1 (centres undefined) | 18.5 µM (active) |
| CCOc1ccc(C(=O)Nc2nnc(S(=O)(=O)N(C)Cc3ccco3)s2)cc1 | 0.162 µM (inconclusive) |
| CCOC(=O)COc1cccc2c(=O)n(CC(=O)NCCc3ccccc3)ccc12 | > 120 µM (not active) |
| O=C(O)c1ccc(/C=N/N2CCN(c3ccccc3)CC2)cc1 | 19.6 µM (active) |
